Assay results from patent publication US10701934B2, “Synergistic weed control from applications of penoxsulam and benzobicyclon or clomazone and benzobicyclon” (Dow AgroSciences LLC, priority 2013, dated 2020).

What was measured:
[1] = test system: Early Watergrass, Echinochloa oryzoides (ECHOR); assay: In-water application in transplanted rice in the greenhouse, visual weed control of ECHOR; format: in vivo; details: 22 days after application, 0-100 scale
Excerpt: (§1) Weed seeds or nutlets of the desired test plant species were planted in puddled soil (mud) prepared by mixing a shredded, non-sterilized mineral soil (50.5 percent silt, 25.5 percent clay, and 24 percent sand, with a pH of about 7.6 and an organic matter content of about 2.9 percent) and water at a 1:1 volumetric ratio. The prepared mud was dispensed in 365 milliliter (mL) aliquots into 16-ounce (oz.) non-perforated plastic pots with a surface area of 86.59 square centimeters (cm^2) leaving a headspace of 3 centimeters (cm) in each pot. Rice seeds were planted in Sun Gro MetroMix® 306 planting mixture, which typically has a pH of 6.0 to 6.8 and an organic matter content of about 30 percent, in plastic plug trays. Seedlings at the second or third leaf stage of growth were transplanted into 860 mL of mud contained in 32-oz. non-perforated plastic pots with a surface area of 86.59 cm^2 4 days prior to herbicide application. The paddy was created by filling the headspace of the pots with 2.5 to 3 cm of water. When required to ensure good germination and healthy plants, a fungicide treatment and/or other chemical or physical treatment was applied. The plants were grown for 4-22 days in a greenhouse with an approximate 14 hour (h) photoperiod which was maintained at about 29° C. during the day and about 26° C. during the night. Nutrients were added as Osmocote® (17:6:10, N:P:K+minor nutrients) at 2 grams (g) per 16-oz. pot and 4 g per 32-oz. pot. Water was added on a regular basis to maintain the paddy flood, and supplemental lighting was provided with overhead metal halide 1000-Watt lamps as necessary. The plants were employed for testing when they reached the first through fourth true leaf stage. Treatments of penoxsulam and benzobicyclon consisted of penoxsulam and benzobicyclon, applied alone or in combination. Treatments of clomazone and benzobicyclon consisted of clomazone and benzobicyclon, applied alone or in combination. Penoxsulam was formulated as Grasp® SC, clomazone was formulated as Command® 3ME, and benzobicyclon was formulated as 3.5% flowable or as technical grade material. Treatment requirements for each compound or herbicidal component were calculated based upon the rates being tested, the concentration of active ingredient or acid equivalent in the formulation, an application volume of 2 mL per component per pot, and an application area of 86.59 cm^2 per pot. For formulated compounds, a measured amount was placed in an individual 100 or 200 mL glass vial and was dissolved in a volume of 1.25% volume per volume (v/v) Agri-Dex® crop oil concentrate to obtain application solutions. […] The results measured at 22 days following application of the compositions are provided in Table 1 (Penoxsulam and Benzobicyclon) and Table 2 (Clomazone and Benzobicyclon).

[2] = test system: Purple Nutsedge, Cyperus rotundus (CYPRO); assay: In-water application in transplanted rice in the greenhouse, visual weed control of CYPRO; format: in vivo; details: 22 days after application, 0-100 scale
Excerpt: as §1, with “Nutrients were added as Osmocote® (17:6:10, N:P:K+minor nutrients) at 2 grams (g) per 16-oz. pot and 4 g per 32-oz. pot. Water was added on a regular basis to maintain the paddy flood, and supplemental lighting was provided with overhead metal halide 1000-Watt lamps as necessary. The plants were employed for testing when they reached the first through fourth true leaf stage. Treatments of penoxsulam and benzobicyclon consisted of penoxsulam and benzobicyclon, applied alone or in combination. Treatments of clomazone and benzobicyclon consisted of clomazone and benzobicyclon, applied alone or in combination. Penoxsulam was formulated as Grasp® SC, clomazone was formulated as Command® 3ME, and benzobicyclon was formulated as 3.5% flowable or as technical grade material.” left out

[3] = Benzobicyclon 100 g ai/ha alone

## CS(=O)(=O)c1ccc(C(=O)C2=C(Sc3ccccc3)C3CCC(C3)C2=O)c(Cl)c1 (stereo not shown) [Benzobicyclon, 3-(2-chloro-4-mesylbenzoyl)-2-phenylthiobicyclo[3.2.1]oct-2-en-4-one]
[1]; Benzobicyclon 25 g ai/ha alone
  % Visual Weed Control 22DAA ECHOR Observed: 0%
[1]; Benzobicyclon 50 g ai/ha alone
  % Visual Weed Control 22DAA ECHOR Observed: 10%
[1]; [3]
  % Visual Weed Control 22DAA ECHOR Observed: 15%
[2]; Benzobicyclon 50 g ai/ha alone
  % Visual Weed Control 22DAA CYPRO Observed: 10%
[2]; [3]
  % Visual Weed Control 22DAA CYPRO Observed: 30%

## CC1(C)CON(Cc2ccccc2Cl)C1=O [Clomazone, 2-[(2-chlorophenyl)methyl]-4,4-dimethyl-3-isoxazolidinone]
[2]; Clomazone 112 g ai/ha alone
  % Visual Weed Control 22DAA CYPRO Observed: 0%

## COc1cnc(OC)n2nc(NS(=O)(=O)c3c(OCC(F)F)cccc3C(F)(F)F)nc12 [Penoxsulam]
[1]; Penoxsulam 10 g ai/ha alone
  % Visual Weed Control 22DAA ECHOR Observed: 85%
